Tests used:
[1] = system: IMQ-induced psoriasis-like skin inflammation; test: Mouse model of IMQ-induced psoriasis-like skin inflammation; type: in vivo, BALB/c mice
Description: All experimental procedures were approved by the Mackay Memorial Hospital Animal Care and Uses Committee and conducted according to national animal welfare regulations. Psoriasis-like skin inflammation was created by treating mouse skin with Imiquimod (IMQ) in accordance with the procedures described by van der Fits et al (J Immunol. (2009), 182, 5836-5845). Accordingly, each BALB/c mice (8 weeks old) received a daily topical dose of 62.5 mg of commercially available IMQ cream (5%) on the shaved back and the right ear for 6 consecutive days; whereas the control mice (normal group) were treated with a control cream. For treatment, 7-mer analogue was mixed with IMQ cream to a concentration 100 μM.
Keratinocyte proliferation was determined by 5-bromo-2′-deoxyuridine (BrdU) incorporation. BrdU (Sigma-Aldrich) was reconstituted in DMSO as a stock solution of 80 mM. 10 μl of BrdU mixed with 90 μl of PBS was intraperitoneally injected into each mouse for 24 hr prior to euthanasia. Back skin was fixed overnight in 4% paraformaldehyde and embedded in paraffin for immunohistochemistry.
In this example, the efficacy of the present synthetic peptides of Example 1 on IMQ-induced psoriasis-like skin inflammation was investigated. To this purpose, animals (8-week-old mice) were given a daily topical dose of IMQ cream on the shaved back for six consecutive days, so as to induce psoriasis-like skin inflammation and desquamation (FIG. 1; left panel).
Psoriasis is a disease resulted from abnormal keratinocyte proliferation, thus the effects of the present synthetic peptides on the proliferation of keratinocytes were also monitored in accordance with procedures described in the section of “Materials and Methods”. Results are illustrated in FIG. 2.

[2] = system: OVA-induced allergic asthma; test: Mouse model of OVA-induced allergic asthma; type: in vivo, BALB/c mice; settings: 7-mer 100 μM intranasal twice a day, vs OVA challenged mice, FIG. 6B
Description: BALB/c mice (4- to 5-weeks old females) were sensitized intraperitoneally with 1 μg of ovalbumin (OVA) and 200 μl of 1.5% aluminum hydroxide on days 0 and 7, respectively; and then challenged three times by intranasal injection with 250 μg of OVA on days 21, 22 and 23. Control mice were given OVA with ALUM in sensitization stages, and PBS in place of OVA in challenge stages. For treatment, 7-mer analogue was mixed with 1% CMC eye drop to a concentration 100 μM. On day 20 and after the OVA challenge (day 21), the mice were randomly assigned to two experimental groups (n=6 per group) is and the nasal was injected with 20 μl of 7-mer or vehicle drop twice a day for 4 days (to day 23). Twenty-four hrs after the final challenge with OVA (day 24), mice were euthanized and their eyes were harvested, fixed overnight in 4% paraformaldehyde and embedded in paraffin.
In this example, we investigate the efficacy of the present synthetic peptide on allergic asthma by use of the well-characterized murine model of allergic airway disease, employing ovalbumin as the antigen. The experimental murine asthma model was established in accordance with the procedures described in the section of “Materials and Methods,” and as depicted in panel A of FIG. 6.

[3] = system: OVA-induced allergic conjunctivitis; test: Mouse model of OVA-induced allergic conjunctivitis; type: in vivo, BALB/c mice; settings: 7-mer 100 μM eye drop twice a day for 4 days, FIG. 5C
Description: BALB/c mice (4- to 5-weeks old females) were sensitized intraperitoneally with 1 μg of ovalbumin (OVA) and 200 μl of 1.5% aluminum hydroxide (ALUM) on days 0 and 7, respectively; and then challenged two times topically in the conjunctival sac with 250 μg of OVA respectively on days 15 and 18. Control mice were given OVA with ALUM in sensitization stages, and PBS in place of OVA in challenge stages. For treatment, 7-mer was mixed with 1% CMC eye drop to a concentration 100 μM. After the OVA challenge (day 15), the mice were randomly assigned to two experimental groups (n=6 per group) and the eye was treated with 20 μl of 7-mer or vehicle eye drop twice a day for 4 days (to day 18). Twenty-four hrs after the final challenge with OVA (day 19), mice were euthanized and their eyes were harvested, fixed overnight in 4% paraformaldehyde and embedded in paraffin. To evaluate the eosinophilic infiltration, sections (5 μm) including eyelids were de-paraffinized and stained with acid-giemsa for detection of eosinophils.
Allergic conjunctivitis (AC) is characterized by conjunctival eosinophilic infiltration. […]

[4] = in vitro; type: cell-based, murine; settings: mouse
[5] = system: LPS-induced arthritis; test: Rat model of LPS-induced arthritis; type: in vivo, Sprague-Dawley rats; settings: 7-mer 1 mM intraarticular along with LPS, 3 days, FIG. 4
Description: In this study, acute arthritis was induced by direct injection of lipopolysaccharide (LPS) into rat joints in accordance with the procedures described by Pan R Y et al (J Virol. (1999) 73, 3410-3417). Briefly, adult (about 10 weeks old) male Sprague-Dawley rats (initial body wt=312±11 g) were anesthetized by an intraperitoneal injection of a Xylazine (10 mg/kg) and then randomly assigned to experimental groups; their right knees were later treated with a single intraarticular injection of 25 μl of 5% hyaluronic acid (HA) containing LPS (2 μg and 10 μg) or LPS+7-mer. 7-mer (10 mM stock) was dissolved in 25 μl of 5% HA to final concentration 1 mM. On day 2, the group LPS+7-mer or LPS+7-mer analogue was further treated with 7-mer by a single intraarticular is injection. On day 3, the knee joints were dissected and fixed in a 4% paraformaldehyde (PFA) solution and then decalcified with Shandon TBD-2 decalcifier (Thermo Scientific, Logan, Utah). The joints were then sectioned mid-sagittally and embedded in paraffin blocks. Sections (5 μm in thickness) were longitudinally cut, and stained with hematoxylin and eosin (H&E).
Rheumatoid arthritis (RA) is a chronic inflammatory disease characterized by an inflammation of the synovium leading to the destruction of joint cartilage and eventually the destruction of joint function. […]

CC(=O)N[C@@H](CC(=O)O)C(=O)N[C@@H](CC(C)C)C(=O)N[C@@H](Cc1ccc(O)cc1)C(=O)N[C@@H](CCCNC(=N)N)C(=O)N[C@H](C(=O)N[C@@H](CCCNC(=N)N)C(=O)N[C@@H](CO)C(N)=O)C(C)C [7-mer, NH2-Asp-Leu-Tyr-Arg-Val-Arg-Ser-COOH]
number of BrdU-positive keratinocytes ([1]; 7-mer topically or via intraperitoneal injection, FIG. 2): significantly reduced
level of skin inflammation and desquamation ([1]; topical cream containing IMQ and 7-mer peptide 100 μM, six consecutive days, FIG. 1): reduced significantly
inflammatory cell infiltration (peribronchial, perivascular; H&E) [2]: significantly reduced
mucus secretion (PAS staining) [2]: markedly reduced
infiltration of eosinophils in the conjunctiva [3]: decreased significantly
viability at 24 h, 20 μM ([4]; Rar264.7 cell viability): 55 ± 3.66%
viability at 24 h, 20 μM ([4]; Raw264.7 cell viability): 55.7 ± 4.24%
inflammation in the knee (synoviocyte proliferation, leukocyte infiltration, H&E) [5]: significantly attenuated

— patent publication US10463710B2, “Short synthetic peptide for the treatment and/or prophylaxis of autoimmune and inflammatory disorders” (MacKay Memorial Hospital, priority 2015, dated 2019)
